Experimental data reported in patent US9734283B2, “Genomic features associated with epigenetic control regions and transgenerational inheritance of epimutations” (priority 2011, dated 2017).

How the values were obtained:
Assay type in all cases: in vivo, mouse
129 and CD-1 mice = test: Litter size, sex ratio, body and tissue weights (toxicity); settings: transient embryonic exposure
Procedure: (§1) The experimental design involved exposing gestating female inbred 129 strain and outbred CD-1 strain mice to daily intraperitoneal (IP) injections of vehicle (DMSO) (control) or vinclozolin at two doses, 100 mg/kg/day (V1) or 200 mg/kg/day (V2), between embryonic day 7-13 of gestation. In addition, a comparison was used with flutamide IP injections at a 20/mg/kg/day dose. The F1 generation males and females from different litters were bred to generate the F2 generation animals and F2 generation males and females from different litters were bred to generate the F3 generation animals, see Methods below. No sibling or cousin breedings occurred to avoid any inbreeding artifacts. Selected F1, F2 and F3 generation animals from postnatal 90 (P90) or 300 (P300) days of age were analyzed for testis, sperm and other pathologies as previously described.^11, 20, 21
(§2) Timed pregnant inbred 129 mice were given intraperitoneal injections with vinclozolin (100 mg/kg·day, 99% pure; ChemService, West Chester, Pa.), flutamide (20 mg/kg·day, Sigma, St. Louis, Mo.) or DMSO in sesame oil (vehicle) as controls, while timed pregnant outbred CD-1 mice were given intraperitoneal injections (IP) with vinclozolin doses: 100 mg/kg·day (V1) or 200 mg/kg·day (V2) or DMSO in sesame oil as controls.^21 Mice were given injections from embryonic day (E) E7-E13, with plug date equal to day 0. Controls were injected with vehicle (DMSO) dose and were matched with vinclozolin or flutamide treatment animals within the same mouse strain at the time of injection and were analyzed together throughout all three generations. The number of treated gestating females used were: for mouse 129 strain (3 controls and 4 vinclozolin treated); for mouse 129 strain flutamide 20 mg/kg/day dose (3 controls and 3 flutamide treated); and for mouse CD-1 strain (4 control and 3 vinclozolin treated (100 mg/kg/day (V1), 3 vinclozolin 200 mg/kg/day (V2)). F1 postnatal (P)P90 males and females from different litters of control, vinclozolin and flutamide treatment groups were bred to generate the F2 generation. F2 generation mice were bred to generate the F3 generation. Breedings were carefully monitored to eliminate any sibling or cousin breeding to remove potential phenotypes as a result of inbreeding. Male mice were collected and analyzed between P60-P90 (P90) for all generations and treatment groups. The number of P90 males collected for replicates for the mouse 129 strain vinclozolin treatment group (i.e. n value) were: for F1 (8 control, 11 vinclozolin); for F2 (11 control, 22 vinclozolin); and for F3 (11 control, 11 vinclozolin). […]

CD-1 and 129 strain mice = test: Transgenerational pathology analysis of adult onset disease (testis, prostate, kidney)
Procedure: as §1, §2

caudal epididymal sperm = test: Epididymal sperm motility and concentration analyses
Procedure: The sperm motility was determined using caudal epididymal sperm. The epididymis was dissected free of connective tissue and a small cut made to the cauda. The tissue was placed in 2 ml F12 culture medium containing 0.1% BSA for 10 minutes at 37° C. Fifty microliters was placed on a warm slide and gently cover-slipped. The specimen was immediately examined using phase contrast microscopy with 200×magnification. The sperm motility assays examined rapid progressive, slow progressive and non-progressive motility according to WHO category.^51 The ratio of motile sperm to the total number of sperm, including immotile sperm, was calculated. Approximately 50-100 sperm were counted per microscopic field. The procedure was repeated at least twice with a new specimen from the same epididymis. Epididymal sperm count was determined using the same epididymis according to a previously described method with some modifications.^25, 52 Briefly, the epididymis that was placed in the 2 ml of culture medium was minced. The tissue pieces were stored at 4° C. for 48 hours to immobilize the sperm. Three independent sperm samples were counted using a hemocytometer. The counts were averaged and used as a replicate in statistical analysis. The control and vinclozolin generation analysis and the control and flutamide generation analysis for an individual experiment were done at the same time. All analyses were done blinded, such that different individuals were used for collection and counting.

CD-1 mice ovaries = test: Identification of ovarian cysts in vinclozolin lineage females; settings: CD-1 females, all F1-F3 generations, V2 200 mg/kg/day; p<0.05
Procedure: Abnormalities in adult females of the F1, F2 and F3 generations were not extensively evaluated. However, at the time of sacrifice and dissection it was noticed that some females had cystic structures on their ovaries. These were grossly visible fluid-filled structures larger than normal Graffian follicles. If an animal had one or more cystic structures on one or both ovaries, then that female was considered to have cystic ovaries. A sub-set of 17 ovaries was also evaluated histologically, and there was concordance of ovaries labeled as cystic at gross dissection with the histologic presence of very large cystic structures. Cysts were defined as structures having a lining of none or a single layer of granulosa cells and an increased thickness of the surrounding stromal/thecal layer compared to what is found in large antral follicles.

[1] = F3 generation vinclozolin lineage CD-1 mice, P300, p<0.02 vs controls

In the case of `C=CC1(C)OC(=O)N(c2cc(Cl)cc(Cl)c2)C1=O` (racemic) [vinclozolin, (RS)-3-(3,5-dichlorophenyl)-5-methyl-5-vinyl-1,3-oxazolidine-2,4-dione], the “body weight, testis weight index, or kidney weight index” value (129 and CD-1 mice; F1-F3) is reported as “no consistent transgenerational differences”, the “litter size or male/female sex ratio” value (129 and CD-1 mice; all generations analyzed) is reported as “no consistent transgenerational effects” and the “animals that developed at least one disease” value (CD-1 and 129 strain mice; [1]) is reported as 75%. For the same compound, the “animals with two or more disease states” value (CD-1 and 129 strain mice; [1]) was 34%, the “proportion of mice exhibiting abnormal disease-like characteristics in testis, prostate, and kidney tissues” value (CD-1 and 129 strain mice; aged (P300) F3 generation CD-1 strain, vinclozolin lineage vs control) was “increases” and the “adult onset disease of the prostate, kidney, testis or ovaries” value (CD-1 and 129 strain mice; inbred 129 strain mice, between treatment groups) was “no observable differences”. The “mean epididymal sperm concentration” value (caudal epididymal sperm; primarily F1 generation, not observed in 129 strain F2 or F3) was “reduction”, the “mean percentage of motile epididymal sperm” value (caudal epididymal sperm; primarily in the F1 generation males) was “reduction” and the ovarian cysts (CD-1 mice ovaries) was “significant increase”.
